Results as given in patent publication US10543212B2, “Substituted amines for treating cardiac diseases” (Cardurion Pharmaceuticals, LLC, priority 2017, dated 2020).

Molecular target: T1, Full-length, GST-tagged, human CaMKIIδ (Homo sapiens, UniProt Q13557)
T1 construct: Full-Length, Glutathione-S-Transferase(GST)-Tagged, Human CaMKIIδ was purchased from Carna Biosciences; purchased Carna Biosciences 02-111
Test: CaMKIIδ binding assay (TR-FRET with BODIPY-labeled probe ligand)
Conditions: CaMKIIδ binding assay, results of Table 2
Outline: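 TR-FRET probe-displacement binding: 0.5 nM GST-CaMKIIδ with 10 μg/mL calmodulin, 1 mM CaCl2, 0.21 nM Tb-anti-GST Ab and 300 nM BODIPY probe in HEPES pH 7.6 buffer. Eight-point 4-fold dilutions, 1 hr at room temperature. IC50 from logistic fit; 100% inhibition defined by 3 μM parent compound.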

T1 sequence (Q13557 1-478 isoform Q13557-12): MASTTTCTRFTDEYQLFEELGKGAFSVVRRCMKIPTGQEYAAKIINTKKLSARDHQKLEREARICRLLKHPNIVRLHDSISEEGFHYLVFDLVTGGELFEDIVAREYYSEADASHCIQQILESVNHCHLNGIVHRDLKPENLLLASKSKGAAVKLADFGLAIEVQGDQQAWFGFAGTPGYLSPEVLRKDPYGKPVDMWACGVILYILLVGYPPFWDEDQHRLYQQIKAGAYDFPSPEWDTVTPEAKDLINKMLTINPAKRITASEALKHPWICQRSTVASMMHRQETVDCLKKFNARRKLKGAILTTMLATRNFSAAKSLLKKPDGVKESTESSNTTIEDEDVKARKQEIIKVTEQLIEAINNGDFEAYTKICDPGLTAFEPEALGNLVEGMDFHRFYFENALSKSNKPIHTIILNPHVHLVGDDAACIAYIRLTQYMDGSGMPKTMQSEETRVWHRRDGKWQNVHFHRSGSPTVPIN

SMILES	IC50
C[C@@H](Cn1cnnn1)Oc1cc(-c2cnc(Nc3cc(C4CCNCC4)c(F)cc3F)nc2)ccc1Cl [Example 575, (S)-5-(3-((1-(1H-tetrazol-1-yl)propan-2-yl)oxy)-4-chlorophenyl)-N-(2,4-difluoro-5-(piperidin-4-yl)phenyl)pyrimidin-2-amine]	< 0.01 µM
COc1ccc(N2CCN(C3COC3)CC2)cc1Nc1ncc(-c2ccc(Cl)c(O[C@@H](C)Cn3cnnn3)c2)cn1 [Example 576, (S)-5-(3-((1-(1H-tetrazol-1-yl)propan-2-yl)oxy)-4-chlorophenyl)-N-(2-methoxy-5-(4-(oxetan-3-yl)piperazin-1-yl)phenyl)pyrimidin-2-amine]	0.01 to 0.1 µM
C[C@@H](Cn1cnnn1)Oc1cc(-c2cnc(Nc3cc(C4CCN(C5COC5)CC4)ccc3OC(F)(F)F)nc2)ccc1Cl [Example 577, (S)-5-(3-((1-(1H-tetrazol-1-yl)propan-2-yl)oxy)-4-chlorophenyl)-N-(5-(1-(oxetan-3-yl)piperidin-4-yl)-2-(trifluoromethoxy)phenyl)pyrimidin-2-amine]	0.01 to 0.1 µM
C[C@@H](Cn1cnnn1)Oc1cc(-c2cnc(Nc3cc(C4CCN(C5COC5)CC4)c(F)cc3F)nc2)ccc1Cl [Example 578, (S)-5-(3-((1-(1H-tetrazol-1-yl)propan-2-yl)oxy)-4-chlorophenyl)-N-(2,4-difluoro-5-(1-(oxetan-3-yl)piperidin-4-yl)phenyl)pyrimidin-2-amine]	0.01 to 0.1 µM
COc1ccc(N2CCN(CC(N)=O)CC2)cc1Nc1ncc(-c2ccc(Cl)c(O[C@@H](C)Cn3cnnn3)c2)cn1 [Example 579, (S)-2-(4-(3-((5-(3-((1-(1H-tetrazol-1-yl)propan-2-yl)oxy)-4-chlorophenyl)pyrimidin-2-yl)amino)-4-methoxyphenyl)piperazin-1-yl)acetamide]	< 0.01 µM
C[C@@H](Cn1cnnn1)Oc1cc(-c2cnc(Nc3cc(N4CCC(N5CCOCC5)CC4)ccc3F)nc2)ccc1Cl [Example 580, (S)-5-(3-((1-(1H-tetrazol-1-yl)propan-2-yl)oxy)-4-chlorophenyl)-N-(2-fluoro-5-(4-morpholinopiperidin-1-yl)phenyl)pyrimidin-2-amine]	< 0.01 µM
C[C@@H](Cn1cnnn1)Oc1cc(-c2cnc(Nc3cc(N4CCC(N5CCOCC5)CC4)cnc3OCC(F)(F)F)nc2)ccc1Cl [Example 581, (S)-5-(3-((1-(1H-tetrazol-1-yl)propan-2-yl)oxy)-4-chlorophenyl)-N-(5-(4-morpholinopiperidin-1-yl)-2-(2,2,2-trifluoroethoxy)pyridin-3-yl)pyrimidin-2-amine]	< 0.01 µM
COc1ccc(N2CCN(C3CCOCC3)CC2)cc1Nc1ncc(-c2ccc(Cl)c(O[C@@H](C)Cn3cnnn3)c2)cn1 [Example 582, (S)-5-(3-((1-(1H-tetrazol-1-yl)propan-2-yl)oxy)-4-chlorophenyl)-N-(2-methoxy-5-(4-(tetrahydro-2H-pyran-4-yl)piperazin-1-yl)phenyl)pyrimidin-2-amine]	< 0.01 µM

Same assay, conditions: Table 2; activity class for CaMKIIδ

SMILES	IC50
COc1ccc(N2CCN(C(=O)CN(C)C)CC2)cc1Nc1ncc(-c2ccc(Cl)c(O[C@@H](C)Cn3cnnn3)c2)cn1 [Example 583, (S)-1-(4-(3-((5-(3-((1-(1H-tetrazol-1-yl)propan-2-yl)oxy)-4-chlorophenyl)pyrimidin-2-yl)amino)-4-methoxyphenyl)piperazin-1-yl)-2-(dimethylamino)ethan-1-one]	< 0.01 µM
COc1ccc(N2CCN(C)CC2)cc1Nc1ncc(-c2ccc(Cl)c(O[C@@H](C)Cn3cnnn3)c2)cn1 [Example 584, (S)-5-(3-((1-(1H-tetrazol-1-yl)propan-2-yl)oxy)-4-chlorophenyl)-N-(2-methoxy-5-(4-methylpiperazin-1-yl)phenyl)pyrimidin-2-amine]	< 0.01 µM
COc1cc2c(cc1Nc1ncc(-c3ccc(C#N)c(O[C@@H](C)Cn4cnnn4)c3)cn1)N(C(=O)C(F)(F)F)CCC2 [Example 585, (S)-2-((1-(1H-tetrazol-1-yl)propan-2-yl)oxy)-4-(2-((6-methoxy-1-(2,2,2-trifluoroacetyl)-1,2,3,4-tetrahydroquinolin-7-yl)amino)pyrimidin-5-yl)benzonitrile]	0.01 to 0.1 µM
COc1cc2c(cc1Nc1ncc(-c3ccc(Cl)c(O[C@@H](C)Cn4cnnn4)c3)cn1)N(C(=O)C(F)(F)F)CCC2 [Example 586, (S)-1-(7-((5-(3-((1-(1H-tetrazol-1-yl)propan-2-yl)oxy)-4-chlorophenyl)pyrimidin-2-yl)amino)-6-methoxy-3,4-dihydroquinolin-1(2H)-yl)-2,2,2-trifluoroethan-1-one]	≥ 0.1 µM
CCOc1nn(C2CCN(C3CCOCC3)CC2)cc1Nc1ncc(-c2ccc(Cl)c(O[C@@H](C)Cn3cnnn3)c2)cn1 [Example 587, (S)-5-(3-((1-(1H-tetrazol-1-yl)propan-2-yl)oxy)-4-chlorophenyl)-N-(3-ethoxy-1-(1-(tetrahydro-2H-pyran-4-yl)piperidin-4-yl)-1H-pyrazol-4-yl)pyrimidin-2-amine]	< 0.01 µM
COc1ccc(C(=O)N2CCCN(CCO)CC2)cc1Nc1ncc(-c2ccc(Cl)c(O[C@@H](C)Cn3cnnn3)c2)cn1 [Example 588, (S)-(3-((5-(3-((1-(1H-tetrazol-1-yl)propan-2-yl)oxy)-4-chlorophenyl)pyrimidin-2-yl)amino)-4-methoxyphenyl) (4-(2-hydroxyethyl)-1,4-diazepan-1-yl)methanone]	< 0.01 µM
COc1ccc(C(=O)N2CCN(C3COC3)CC2)cc1Nc1ncc(-c2ccc(Cl)c(O[C@@H](C)Cn3cnnn3)c2)cn1 [Example 589, (S)-(3-((5-(3-((1-(1H-tetrazol-1-yl)propan-2-yl)oxy)-4-chlorophenyl)pyrimidin-2-yl)amino)-4-methoxyphenyl) (4-(oxetan-3-yl)piperazin-1-yl)methanone]	0.01 to 0.1 µM
COc1cc2c(cc1Nc1ncc(-c3ccc(C#N)c(O[C@@H](C)Cn4cnnn4)c3)cn1)NCCC2 [Example 590, (S)-2-((1-(1H-tetrazol-1-yl)propan-2-yl)oxy)-4-(2-((6-methoxy-1,2,3,4-tetrahydroquinolin-7-yl)amino)pyrimidin-5-yl)benzonitrile]	< 0.01 µM
COc1cc2c(cc1Nc1ncc(-c3ccc(Cl)c(O[C@@H](C)Cn4cnnn4)c3)cn1)NCCC2 [Example 591, (S)-N-(5-(3-((1-(1H-tetrazol-1-yl)propan-2-yl)oxy)-4-chlorophenyl)pyrimidin-2-yl)-6-methoxy-1,2,3,4-tetrahydroquinolin-7-amine]	< 0.01 µM
C[C@@H](Cn1cnnn1)Oc1cc(-c2cnc(Nc3cn(C4CCN(C5CCOCC5)CC4)nc3C#N)nc2)ccc1Cl [Example 592, (S)-4-((5-(3-((1-(1H-tetrazol-1-yl)propan-2-yl)oxy)-4-chlorophenyl)pyrimidin-2-yl)amino)-1-(1-(tetrahydro-2H-pyran-4-yl)piperidin-4-yl)-1H-pyrazole-3-carbonitrile]	< 0.01 µM
COc1ccc(C(=O)N2CCCNCC2)cc1Nc1ncc(-c2ccc(Cl)c(O[C@@H](C)Cn3cnnn3)c2)cn1 [Example 593, (S)-(3-((5-(3-((1-(1H-tetrazol-1-yl)propan-2-yl)oxy)-4-chlorophenyl)pyrimidin-2-yl)amino)-4-methoxyphenyl) (1,4-diazepan-1-yl)methanone]	< 0.01 µM
COc1cc(N2CCOC(CO)C2)ccc1Nc1ncc(-c2ccc(Cl)c(O[C@@H](C)Cn3cnnn3)c2)cn1 (stereo partly drawn) [Example 594, (4-(4-((5-(3-(((S)-1-(1H-tetrazol-1-yl)propan-2-yl)oxy)-4-chlorophenyl)pyrimidin-2-yl)amino)-3-methoxyphenyl)morpholin-2-yl)methanol]	0.01 to 0.1 µM
COc1ccc(N2CC(N3CCOCC3)C2)cc1Nc1ncc(-c2ccc(Cl)c(O[C@@H](C)Cn3cnnn3)c2)cn1 [Example 595, (S)-5-(3-((1-(1H-tetrazol-1-yl)propan-2-yl)oxy)-4-chlorophenyl)-N-(2-methoxy-5-(3-morpholinoazetidin-1-yl)phenyl)pyrimidin-2-amine]	0.01 to 0.1 µM
C[C@@H](Cn1cnnn1)Oc1cc(-c2cnc(Nc3cn(CC4CN(C(=O)OC(C)(C)C)C4)nc3C(F)(F)F)nc2)ccc1Cl [Example 596, tert-butyl (S)-3-((4-((5-(3-((1-(1H-tetrazol-1-yl)propan-2-yl)oxy)-4-chlorophenyl)pyrimidin-2-yl)amino)-3-(trifluoromethyl) -1H-pyrazol-1-yl)methyl)azetidine-1-carboxylate]	≥ 0.1 µM
C[C@@H](Cn1cnnn1)Oc1cc(-c2cnc(Nc3cn(CC4CNC4)nc3C(F)(F)F)nc2)ccc1Cl [Example 597, (S)-5-(3-((1-(1H-tetrazol-1-yl)propan-2-yl)oxy)-4-chlorophenyl)-N-(1-(azetidin-3-ylmethyl)-3-(trifluoromethyl)-1H-pyrazol-4-yl)pyrimidin-2-amine]	< 0.01 µM
C[C@@H](Cn1cnnn1)Oc1cc(-c2cnc(Nc3cn(CC4CN(C5COC5)C4)nc3C(F)(F)F)nc2)ccc1Cl [Example 598, (S)-5-(3-((1-(1H-tetrazol-1-yl)propan-2-yl)oxy)-4-chlorophenyl)-N-(1-((1-(oxetan-3-yl)azetidin-3-yl)methyl)-3-(trifluoromethyl)-1H-pyrazol-4-yl)pyrimidin-2-amine]	< 0.01 µM
C[C@@H](Cn1cnnn1)Oc1cc(-c2cnc(Nc3cn(C4CCCN(C(=O)OC(C)(C)C)C4)nc3C(F)(F)F)nc2)ccc1Cl (stereo partly drawn) [Example 599, tert-butyl 3-(4-((5-(3-(((S)-1-(1H-tetrazol-1-yl)propan-2-yl)oxy)-4-chlorophenyl)pyrimidin-2-yl)amino)-3-(trifluoromethyl)-1H-pyrazol-1-yl)piperidine-1-carboxylate]	≥ 0.1 µM
C[C@@H](Cn1cnnn1)Oc1cc(-c2cnc(Nc3cn(C4CCCNC4)nc3C(F)(F)F)nc2)ccc1Cl (stereo partly drawn) [Example 600, 5-(3-(((S)-1-(1H-tetrazol-1-yl)propan-2-yl)oxy)-4-chlorophenyl)-N-(1-(piperidin-3-yl)-3-(trifluoromethyl)-1H-pyrazol-4-yl)pyrimidin-2-amine]	< 0.01 µM
